According to paper PMC5007443, “TNIK inhibition abrogates colorectal cancer stemness” (Nature Communications, 2016):
pIC50: −log10 of the molar value. “And” between values parts separate entries of the source, which are not always exact repeats. Identical values can stand only once.

Legend:
ABL = ABL (Homo sapiens, UniProt P00519); assay: Kinase selectivity profiling, c-Abl oncogene 1; format: biochemical; details: read-out: Percentage inhibition of ABL
Protocol: (§1) The selectivity of compounds against a panel of 50 human protein kinases was assessed using a non-radiometric assay.

AurA = AurA (Homo sapiens, UniProt O14965); assay: Kinase selectivity profiling, Aurora kinase A; format: biochemical; details: read-out: Percentage inhibition of AurA
Protocol: as §1

Erk2 = Erk2 (Homo sapiens, UniProt P28482); assay: Kinase selectivity profiling, Mitogen-activated protein kinase 1; format: biochemical; details: read-out: Percentage inhibition of Erk2
Protocol: as §1

HGK = HGK (Homo sapiens, UniProt O95819); assay: Kinase selectivity profiling, Hematopoietic progenitor kinase; format: biochemical; details: 0.1 µM inhibitor, ATP at Km; for inhibition at 0.1 µM: read-out: Percentage inhibition of HGK
HGK, sequence (O95819 whole entry): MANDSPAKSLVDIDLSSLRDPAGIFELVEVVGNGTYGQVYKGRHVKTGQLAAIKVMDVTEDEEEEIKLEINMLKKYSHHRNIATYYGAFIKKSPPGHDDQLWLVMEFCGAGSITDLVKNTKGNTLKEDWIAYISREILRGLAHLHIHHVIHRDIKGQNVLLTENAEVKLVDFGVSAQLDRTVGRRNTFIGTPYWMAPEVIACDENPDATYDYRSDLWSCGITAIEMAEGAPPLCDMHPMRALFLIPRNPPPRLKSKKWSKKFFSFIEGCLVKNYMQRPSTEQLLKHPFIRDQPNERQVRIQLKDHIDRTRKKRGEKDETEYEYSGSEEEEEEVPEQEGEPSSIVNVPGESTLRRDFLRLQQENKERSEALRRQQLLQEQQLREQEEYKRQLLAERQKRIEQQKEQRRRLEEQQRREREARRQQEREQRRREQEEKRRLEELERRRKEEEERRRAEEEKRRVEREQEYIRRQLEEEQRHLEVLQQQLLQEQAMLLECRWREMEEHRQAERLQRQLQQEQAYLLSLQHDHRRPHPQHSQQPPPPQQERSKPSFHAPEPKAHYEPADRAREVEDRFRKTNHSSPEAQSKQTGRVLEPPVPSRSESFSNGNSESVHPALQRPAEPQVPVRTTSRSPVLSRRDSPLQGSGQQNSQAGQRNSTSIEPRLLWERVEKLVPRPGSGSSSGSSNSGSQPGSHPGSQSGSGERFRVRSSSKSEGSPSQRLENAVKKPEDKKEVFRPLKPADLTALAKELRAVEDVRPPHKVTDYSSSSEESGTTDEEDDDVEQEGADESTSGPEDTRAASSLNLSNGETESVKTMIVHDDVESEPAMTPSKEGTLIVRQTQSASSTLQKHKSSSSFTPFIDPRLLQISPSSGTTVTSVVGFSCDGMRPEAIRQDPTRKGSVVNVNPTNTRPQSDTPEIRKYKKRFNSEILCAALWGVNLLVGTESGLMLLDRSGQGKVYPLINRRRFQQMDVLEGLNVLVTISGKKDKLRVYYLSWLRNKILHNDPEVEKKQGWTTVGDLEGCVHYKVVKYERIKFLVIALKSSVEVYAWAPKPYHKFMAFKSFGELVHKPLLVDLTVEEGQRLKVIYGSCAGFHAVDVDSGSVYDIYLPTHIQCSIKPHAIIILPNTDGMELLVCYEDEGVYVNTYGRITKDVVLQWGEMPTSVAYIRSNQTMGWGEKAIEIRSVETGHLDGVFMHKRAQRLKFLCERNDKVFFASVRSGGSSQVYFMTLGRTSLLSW
Protocol: as §1

TYRO3 = TYRO3 (Homo sapiens, UniProt Q06418); assay: Kinase selectivity profiling, Tyro3 receptor tyrosine kinase; format: biochemical; details: read-out: Percentage inhibition of TYRO3
Protocol: as §1

PYK2 = PYK2 (Homo sapiens, UniProt Q14289); assay: Kinase selectivity profiling, Proline-rich tyrosine kinase 2; format: biochemical; details: read-out: Percentage inhibition of PYK2
Protocol: as §1

GSK3β = GSK3β (Homo sapiens, UniProt P49841); assay: Kinase selectivity profiling, Glycogen synthase kinase 3β; format: biochemical; details: read-out: Percentage inhibition of GSK3β
Protocol: as §1

PKCα = PKCα (Homo sapiens, UniProt P17252); assay: Kinase selectivity profiling, Protein kinase C-α; format: biochemical; details: read-out: Percentage inhibition of PKCα
Protocol: as §1

PDGFRα = PDGFRα (Homo sapiens, UniProt P16234); assay: Kinase selectivity profiling, Platelet-derived growth factor receptor α; format: biochemical; details: 0.1 µM inhibitor, ATP at Km; for inhibition at 0.1 µM: read-out: Percentage inhibition of PDGFRα
PDGFRα, sequence (P16234 24-1089): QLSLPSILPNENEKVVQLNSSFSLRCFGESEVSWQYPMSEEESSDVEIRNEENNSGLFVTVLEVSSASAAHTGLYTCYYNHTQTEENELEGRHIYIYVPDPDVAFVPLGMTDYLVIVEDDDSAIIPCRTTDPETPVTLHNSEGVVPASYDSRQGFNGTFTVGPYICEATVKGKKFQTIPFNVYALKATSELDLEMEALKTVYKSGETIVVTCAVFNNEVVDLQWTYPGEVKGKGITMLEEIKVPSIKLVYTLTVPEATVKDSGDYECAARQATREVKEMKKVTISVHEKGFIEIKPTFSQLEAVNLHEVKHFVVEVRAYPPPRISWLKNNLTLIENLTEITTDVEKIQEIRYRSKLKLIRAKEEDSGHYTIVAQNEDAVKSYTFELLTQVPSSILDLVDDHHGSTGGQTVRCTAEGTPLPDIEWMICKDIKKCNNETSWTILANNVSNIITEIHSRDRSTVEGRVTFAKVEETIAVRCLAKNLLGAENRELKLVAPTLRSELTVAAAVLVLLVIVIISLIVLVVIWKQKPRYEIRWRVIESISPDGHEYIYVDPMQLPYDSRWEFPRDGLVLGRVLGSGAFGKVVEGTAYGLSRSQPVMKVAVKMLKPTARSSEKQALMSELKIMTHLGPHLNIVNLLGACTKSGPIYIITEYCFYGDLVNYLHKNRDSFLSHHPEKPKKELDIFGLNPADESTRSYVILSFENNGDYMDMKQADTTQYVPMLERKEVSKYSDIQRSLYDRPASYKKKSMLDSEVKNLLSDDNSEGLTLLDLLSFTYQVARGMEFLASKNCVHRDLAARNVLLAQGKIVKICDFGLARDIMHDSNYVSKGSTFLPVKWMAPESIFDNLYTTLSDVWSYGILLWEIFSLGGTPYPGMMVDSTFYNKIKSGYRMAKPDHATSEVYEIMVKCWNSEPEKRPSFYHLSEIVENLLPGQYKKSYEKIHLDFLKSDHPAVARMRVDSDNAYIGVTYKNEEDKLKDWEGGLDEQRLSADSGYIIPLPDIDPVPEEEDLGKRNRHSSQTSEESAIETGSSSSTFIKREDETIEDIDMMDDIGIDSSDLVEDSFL
Protocol: as §1

[1] = system: patient-derived colorectal cancer spheroids #6; assay: Limiting dilution analysis of sphere reformation, spheroids #6; format: cell-based, human; details: spheroids #6, 3-day Treatment
Protocol: Spheroids were gently dissociated into single cells with the use of StemPro Accutase (Thermo Fisher Scientific), and 1,000, 100, 10 or 1 viable cells were seeded into each well of a 96-well U-bottom PrimeSurface plate (Supplementary Figs 10b and 12). Experiments were performed in triplicate and repeated at least two times.

ITK = ITK (Homo sapiens, UniProt Q08881); assay: Kinase selectivity profiling, IL2-inducible T-cell kinase; format: biochemical; details: read-out: Percentage inhibition of ITK
Protocol: as §1

FLT3 = FLT3 (Homo sapiens, UniProt P36888); assay: Kinase selectivity profiling, Fms-related tyrosine kinase 3; format: biochemical; details: 0.1 µM inhibitor, ATP at Km
FLT3, sequence (P36888 27-993): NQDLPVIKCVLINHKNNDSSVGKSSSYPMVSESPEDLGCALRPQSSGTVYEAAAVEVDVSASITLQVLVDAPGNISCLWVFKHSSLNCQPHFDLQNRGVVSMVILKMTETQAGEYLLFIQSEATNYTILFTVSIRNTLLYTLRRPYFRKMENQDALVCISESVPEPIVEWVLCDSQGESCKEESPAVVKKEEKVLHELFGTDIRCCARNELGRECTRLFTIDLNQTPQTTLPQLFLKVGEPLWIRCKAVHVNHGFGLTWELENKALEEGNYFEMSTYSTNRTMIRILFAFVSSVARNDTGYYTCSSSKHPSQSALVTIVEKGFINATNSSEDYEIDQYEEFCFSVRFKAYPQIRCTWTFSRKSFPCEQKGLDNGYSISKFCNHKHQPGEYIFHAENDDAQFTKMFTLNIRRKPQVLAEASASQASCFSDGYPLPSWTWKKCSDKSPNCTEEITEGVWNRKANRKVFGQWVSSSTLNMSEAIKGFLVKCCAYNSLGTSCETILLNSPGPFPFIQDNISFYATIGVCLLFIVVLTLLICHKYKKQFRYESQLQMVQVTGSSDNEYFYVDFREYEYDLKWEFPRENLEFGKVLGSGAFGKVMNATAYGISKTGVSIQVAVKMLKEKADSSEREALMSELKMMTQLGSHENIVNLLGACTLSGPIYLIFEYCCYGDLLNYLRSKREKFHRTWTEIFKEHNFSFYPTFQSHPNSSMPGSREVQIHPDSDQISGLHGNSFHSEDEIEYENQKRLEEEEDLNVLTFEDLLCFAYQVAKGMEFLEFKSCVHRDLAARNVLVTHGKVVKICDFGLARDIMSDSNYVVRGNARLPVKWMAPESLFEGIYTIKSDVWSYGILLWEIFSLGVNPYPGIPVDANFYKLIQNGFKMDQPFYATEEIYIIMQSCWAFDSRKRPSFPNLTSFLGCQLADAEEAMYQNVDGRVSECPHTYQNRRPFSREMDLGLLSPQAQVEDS
Protocol: as §1

Spheroid #6 = assay: ALDH activity of spheroid #6; format: cell-based, human; details: spheroid #6, 1 μM, 48 hr
Protocol: Cells with ALDH activity were detected using an Aldefluor kit (Stem Cell Technologies) in accordance with the manufacturer's instructions. Briefly, cells were incubated in Aldefluor assay buffer containing ALDH substrate for 30 min at 37 °C. As a negative control, an aliquot of each sample was treated with 50 mM diethylaminobenzaldehyde (DEAB) to block ALDH activity. Cells were analysed with a Guava easy Cyte HT flow cytometer. Data analysis was performed using the Guava InCyte software. The analysis was performed in triplicate and repeated at least two times.

SYK = SYK (Homo sapiens, UniProt P43405); assay: Kinase selectivity profiling, Spleen tyrosine kinase; format: biochemical; details: read-out: Percentage inhibition of SYK
Protocol: as §1

PBK = PBK (Homo sapiens, UniProt Q96KB5); assay: Kinase selectivity profiling, PDZ binding kinase; format: biochemical; details: read-out: Percentage inhibition of PBK
Protocol: as §1

CDK2/CycA2 = CDK2/CycA2 (Homo sapiens, UniProt P24941); assay: Kinase selectivity profiling, Cyclin-dependent kinase 2/cyclin A2; format: biochemical; details: 0.1 µM inhibitor, ATP at Km
Protocol: as §1

HCT116 cells [2] = assay: Immunoblotting of CSC, mesenchymal and embryonal stem cell markers in HCT116 cells; format: cell-based, human; details: HCT116, 3 μM, 48 or 72 h
Protocol: Protein samples were fractionated by SDS–PAGE and blotted onto Immobilon-P membranes (Millipore) as described previously. After incubation with the primary antibodies (listed in Supplementary Table 4) at 4 °C overnight, the blots were detected with the relevant horseradish peroxidase-conjugated anti-mouse or anti-rabbit IgG antibody (Cell Signaling Technology) and Western lighting ECL Pro (PerkinElmer). Signals were visualized with the LAS-4010 system (GE Healthcare). Uncropped versions of the blots in Figs 2e and 3f are shown in Supplementary Fig. 15.

CK1ε = CK1ε (Homo sapiens, UniProt P49674); assay: Kinase selectivity profiling, Casein kinase 1ε; format: biochemical; details: read-out: Percentage inhibition of CK1ε
Protocol: as §1

TRKA = TRKA (Homo sapiens, UniProt P04629); assay: Kinase selectivity profiling, Tropomyosin receptor kinase A; format: biochemical; details: 0.1 µM inhibitor, ATP at Km; for inhibition at 0.1 µM: read-out: Percentage inhibition of TRKA
TRKA, sequence (P04629 33-796): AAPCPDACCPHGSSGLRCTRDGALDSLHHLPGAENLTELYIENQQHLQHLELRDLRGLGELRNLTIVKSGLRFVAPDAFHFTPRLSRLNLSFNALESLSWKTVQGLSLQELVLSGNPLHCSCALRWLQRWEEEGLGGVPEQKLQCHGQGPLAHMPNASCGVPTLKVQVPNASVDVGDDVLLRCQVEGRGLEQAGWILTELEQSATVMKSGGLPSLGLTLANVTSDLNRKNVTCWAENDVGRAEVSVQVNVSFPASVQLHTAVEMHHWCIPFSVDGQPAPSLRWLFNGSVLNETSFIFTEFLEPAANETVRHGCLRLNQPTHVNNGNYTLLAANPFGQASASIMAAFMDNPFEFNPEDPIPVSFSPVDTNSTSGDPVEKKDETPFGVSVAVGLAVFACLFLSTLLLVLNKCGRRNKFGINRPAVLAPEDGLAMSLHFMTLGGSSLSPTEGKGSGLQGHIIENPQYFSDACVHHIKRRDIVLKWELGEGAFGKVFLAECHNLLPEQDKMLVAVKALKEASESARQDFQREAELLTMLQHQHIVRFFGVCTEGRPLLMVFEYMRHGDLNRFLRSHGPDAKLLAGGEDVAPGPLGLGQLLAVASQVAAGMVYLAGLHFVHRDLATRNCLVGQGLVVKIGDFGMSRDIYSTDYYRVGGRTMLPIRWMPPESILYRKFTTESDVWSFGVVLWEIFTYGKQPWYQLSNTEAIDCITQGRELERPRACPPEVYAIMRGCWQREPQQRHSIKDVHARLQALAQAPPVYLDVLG
Protocol: as §1

AMPKα1/β1/γ1 = AMPKα1/β1/γ1 (Homo sapiens, UniProt Q13131); assay: Kinase selectivity profiling, AMP-activated protein kinase; format: biochemical; details: read-out: Percentage inhibition of AMPKα1/β1/γ1
Protocol: as §1

DYRK1B = DYRK1B (Homo sapiens, UniProt Q9Y463); assay: Kinase selectivity profiling, Dual-specificity tyrosine-phosphorylation regulated kinase 1B; format: biochemical; details: read-out: Percentage inhibition of DYRK1B
DYRK1B, sequence (Q9Y463 whole entry): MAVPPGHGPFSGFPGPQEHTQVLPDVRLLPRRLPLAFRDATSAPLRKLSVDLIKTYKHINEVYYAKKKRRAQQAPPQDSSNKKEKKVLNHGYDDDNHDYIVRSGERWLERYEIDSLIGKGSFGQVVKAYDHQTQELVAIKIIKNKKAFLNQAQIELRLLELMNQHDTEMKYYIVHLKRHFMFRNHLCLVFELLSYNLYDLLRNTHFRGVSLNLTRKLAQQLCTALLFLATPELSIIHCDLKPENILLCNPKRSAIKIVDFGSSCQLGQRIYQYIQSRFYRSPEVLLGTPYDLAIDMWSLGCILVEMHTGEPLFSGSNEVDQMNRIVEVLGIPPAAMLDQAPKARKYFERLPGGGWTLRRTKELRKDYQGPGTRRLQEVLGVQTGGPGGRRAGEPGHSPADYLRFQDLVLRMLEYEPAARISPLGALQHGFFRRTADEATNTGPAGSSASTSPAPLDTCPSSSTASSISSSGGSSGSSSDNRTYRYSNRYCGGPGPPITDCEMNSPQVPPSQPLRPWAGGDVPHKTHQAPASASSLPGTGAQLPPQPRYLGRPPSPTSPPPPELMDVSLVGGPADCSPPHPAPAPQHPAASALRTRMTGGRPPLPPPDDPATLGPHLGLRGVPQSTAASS
Protocol: as §1

p70S6K = p70S6K (Homo sapiens, UniProt P23443); assay: Kinase selectivity profiling, Ribosomal protein S6 kinase; format: biochemical; details: read-out: Percentage inhibition of p70S6K
Protocol: as §1

PIM1 = PIM1 (Homo sapiens, UniProt P11309); assay: Kinase selectivity profiling, Pim-1 oncogene; format: biochemical; details: read-out: Percentage inhibition of PIM1
PIM1, sequence (P11309 whole entry): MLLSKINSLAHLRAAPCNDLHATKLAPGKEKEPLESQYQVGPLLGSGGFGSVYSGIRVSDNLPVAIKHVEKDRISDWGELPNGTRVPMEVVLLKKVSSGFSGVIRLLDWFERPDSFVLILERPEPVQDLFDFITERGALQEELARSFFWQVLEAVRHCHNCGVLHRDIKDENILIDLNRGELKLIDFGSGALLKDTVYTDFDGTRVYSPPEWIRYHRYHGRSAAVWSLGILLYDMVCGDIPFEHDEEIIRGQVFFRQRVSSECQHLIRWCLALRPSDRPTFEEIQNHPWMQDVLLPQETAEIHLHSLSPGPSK
Protocol: as §1

HCT116 cells [3] = assay: Drug sensitivity assay, ATP production, 2D culture; format: cell-based; details: Homo sapiens, HCT-116; HCT116, 2D culture, 72 h; read-out: IC50, ATP production (cell growth)
Protocol: Cells were seeded at a density of 3,000 cells per well in 96-well plates. Twenty-four hours after seeding, the cells were exposed to serially diluted compounds (0.003, 0.01, 0.03, 0.1, 0.3, 1, 3 and 10 μM) and incubated for 72 h (Fig. 3a). Patient-derived colorectal cancer spheroids were dissociated into single cells with Accutase (Nacalai Tesque) and seeded at a density of 3,000 cells per well into Ultra-Low attachment multiwall 96-well plates (Corning; Fig. 6d). ATP was measured with a CellTiter-Glo Luminescent Cell Viability Assay kit (Promega). Experiments were performed in triplicate and repeated at least two times.

With O[C@H]1CC[C@H](Oc2cccc3cnc(Nc4ccc5nc[nH]c5c4)nc23)CC1 [NCB-0970] the inhibition at 0.1 µM (ABL) was 3.9%, the inhibition at 0.1 µM (AurA) was 36.5% and the inhibition at 0.1 µM (Erk2) was -2.1%. The inhibition at 0.1 µM (HGK) was 21.8%, the inhibition at 0.1 µM (TYRO3) was 23.9% and the inhibition at 0.1 µM (PYK2) was 23.6%. The inhibition at 0.1 µM (GSK3β) was 13.5%, the inhibition at 0.1 µM (PKCα) was 1.4% and the inhibition at 0.1 µM (PDGFRα) was 45.6%. For the same compound, the Sphere-containing wells/total wells ([1]; 0.1 μM, 1 cell per well) was 8/96, the Sphere-containing wells/total wells ([1]; 0.1 μM, 10 cells per well) was 83/96 and the Sphere-containing wells/total wells ([1]; 0.1 μM, 100 cells per well) was 96/96. For the same compound, the Sphere-containing wells/total wells ([1]; 0.1 μM, 1000 cells per well) was 96/96, the Sphere-containing wells/total wells ([1]; 0.3 μM, 1 cell per well) was 10/96 and the Sphere-containing wells/total wells ([1]; 0.3 μM, 10 cells per well) was 87/96. For the same compound, the Sphere-containing wells/total wells ([1]; 0.3 μM, 100 cells per well) was 96/96, the Sphere-containing wells/total wells ([1]; 0.3 μM, 1000 cells per well) was 96/96 and the “Sphere-initiating cell frequency, Estimate” value ([1]; 1.0 μM) was 1/15. The Sphere-containing wells/total wells ([1]; 1.0 μM, 1 cell per well) was 1/96, the Sphere-containing wells/total wells ([1]; 1.0 μM, 10 cells per well) was 50/96 and the Sphere-containing wells/total wells ([1]; 1.0 μM, 100 cells per well) was 96/96. For the same compound, the Sphere-containing wells/total wells ([1]; 1.0 μM, 1000 cells per well) was 96/96, the inhibition at 0.1 µM (ITK) was 9% and the inhibition at 0.1 µM (FLT3; read-out: Percentage inhibition of FLT3) was 102%. The “percentage of cells with ALDH activity, - DEAB” value (Spheroid #6) was 44.32%, the “percentage of cells with ALDH activity, + DEAB” value (Spheroid #6) was 2.30% and the inhibition at 0.1 µM (SYK) was 14.2%. The inhibition at 0.1 µM (PBK) was -5.8%, the inhibition at 0.1 µM (CDK2/CycA2; read-out: Percentage inhibition of CDK2/CycA2) was 93% and the “downregulation of expression of putative colorectal CSC markers CD44, CD133, ALDH1” value (HCT116 cells [2]) was “not”. The inhibition at 0.1 µM (CK1ε) was -1.6%, the inhibition at 0.1 µM (TRKA) was 81.6% and the inhibition at 0.1 µM (AMPKα1/β1/γ1) was 9.3%. The inhibition at 0.1 µM (DYRK1B) was -2.4%, the inhibition at 0.1 µM (p70S6K) was 11.4% and the inhibition at 0.1 µM (PIM1) was -5%. For the same compound, the pIC50 (HCT116 cells [3]) was 5.62.
In the case of O[C@H]1CC[C@@H](Oc2cccc3cnc(Nc4ccc5nc[nH]c5c4)nc23)CC1 [NCB-0846, cis-4-(2-(3H-benzo[d]imidazol-5-ylamino)quinazolin-8-yloxy)cyclohexanol], the inhibition at 0.1 µM (ABL) was 16.9%, the inhibition at 0.1 µM (AurA) was 41.4% and the inhibition at 0.1 µM (Erk2) was 0.7%. The “Percentage inhibition of HGK” value (HGK; 0.1 µM) was 80.5%, the inhibition at 0.1 µM (HGK) was greater than 80% and the inhibition at 0.1 µM (TYRO3) was 48.9%. For the same compound, the inhibition at 0.1 µM (PYK2) was 73%, the inhibition at 0.1 µM (GSK3β) was 27.7% and the inhibition at 0.1 µM (PKCα) was -0.9%. The “Percentage inhibition of PDGFRα” value (PDGFRα; 0.1 µM) was 89.0%, the inhibition at 0.1 µM (PDGFRα) was greater than 80% and the Sphere-containing wells/total wells ([1]; 0.1 μM, 1 cell per well) was 12/96. The Sphere-containing wells/total wells ([1]; 0.1 μM, 10 cells per well) was 77/96, the Sphere-containing wells/total wells ([1]; 0.1 μM, 100 cells per well) was 96/96 and the Sphere-containing wells/total wells ([1]; 0.1 μM, 1000 cells per well) was 96/96. For the same compound, the Sphere-containing wells/total wells ([1]; 0.3 μM, 1 cell per well) was 3/96, the Sphere-containing wells/total wells ([1]; 0.3 μM, 10 cells per well) was 72/96 and the Sphere-containing wells/total wells ([1]; 0.3 μM, 100 cells per well) was 96/96. The Sphere-containing wells/total wells ([1]; 0.3 μM, 1000 cells per well) was 96/96, the Sphere-containing wells/total wells ([1]; 1.0 μM, 1 cell per well) was 2/96 and the Sphere-containing wells/total wells ([1]; 1.0 μM, 10 cells per well) was 49/96. The Sphere-containing wells/total wells ([1]; 1.0 μM, 100 cells per well) was 94/96, the Sphere-containing wells/total wells ([1]; 1.0 μM, 1000 cells per well) was 96/96 and the inhibition at 0.1 µM (ITK) was 10%. The “Percentage inhibition of FLT3” value (FLT3; 0.1 µM) was > 80% and 104.1%, the “percentage of cells with ALDH activity, - DEAB” value (Spheroid #6) was 19.43% and the “percentage of cells with ALDH activity, + DEAB” value (Spheroid #6) was 1.01%. For the same compound, the inhibition at 0.1 µM (SYK) was 7.6%, the inhibition at 0.1 µM (PBK) was -3.9% and the “Percentage inhibition of CDK2/CycA2” value (CDK2/CycA2; 0.1 µM) was > 80% and 101.1%. The “downregulation of expression of putative colorectal CSC markers CD44, CD133, ALDH1” value (HCT116 cells [2]) was “downregulated”, the “embryonal stem cell markers (Oct4, Nanog and Sox2)” value (HCT116 cells [2]) was “not affected” and the “expression of mesenchymal markers (Slug, Snail, Twist, Smad2 and Vimentin)” value (HCT116 cells [2]) was “reduced”. The inhibition at 0.1 µM (CK1ε) was -2.8%, the “Percentage inhibition of TRKA” value (TRKA; 0.1 µM) was 89.1% and the inhibition at 0.1 µM (TRKA) was greater than 80%. The inhibition at 0.1 µM (AMPKα1/β1/γ1) was 31.5%, the inhibition at 0.1 µM (DYRK1B) was 8.9% and the inhibition at 0.1 µM (p70S6K) was 11%. For the same compound, the inhibition at 0.1 µM (PIM1) was -3.1% and the pIC50 (HCT116 cells [3]) was 6.44.
